The target in the assay is NR1/NR2B (Homo sapiens (Human), UniProt Q05586+Q13224). Nature of the assay: Cell assay: FDSS Ca2+ influx inhibition in HEK293 cells expressing NR1/NR2B.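 Further: Fluo-8 Ca2+ signal read on Hamamatsu FDSS 6000 after glutamate, glycine and Ca2+ challenge following 10 min compound preincubation, end/baseline fluorescence ratio compared with MK801 control.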 The settings on record: Ca2+ influx.
The mark [1] stands for this setting: NR2B NAM IC50, HEK293 cells expressing NR1/NR2B.
[2] abbreviates: Binned Activity, HEK293 cells expressing NR1/NR2B, binned NR2B NAM IC50.

As usually defined, the pIC50 is the negative decadic logarithm of the IC50, by convention in mol/L. A low value points to a large IC50.

pIC50: −log10 of the molar value.

Chain of NR1/NR2B (Q13224 27-1484, other chains not shown): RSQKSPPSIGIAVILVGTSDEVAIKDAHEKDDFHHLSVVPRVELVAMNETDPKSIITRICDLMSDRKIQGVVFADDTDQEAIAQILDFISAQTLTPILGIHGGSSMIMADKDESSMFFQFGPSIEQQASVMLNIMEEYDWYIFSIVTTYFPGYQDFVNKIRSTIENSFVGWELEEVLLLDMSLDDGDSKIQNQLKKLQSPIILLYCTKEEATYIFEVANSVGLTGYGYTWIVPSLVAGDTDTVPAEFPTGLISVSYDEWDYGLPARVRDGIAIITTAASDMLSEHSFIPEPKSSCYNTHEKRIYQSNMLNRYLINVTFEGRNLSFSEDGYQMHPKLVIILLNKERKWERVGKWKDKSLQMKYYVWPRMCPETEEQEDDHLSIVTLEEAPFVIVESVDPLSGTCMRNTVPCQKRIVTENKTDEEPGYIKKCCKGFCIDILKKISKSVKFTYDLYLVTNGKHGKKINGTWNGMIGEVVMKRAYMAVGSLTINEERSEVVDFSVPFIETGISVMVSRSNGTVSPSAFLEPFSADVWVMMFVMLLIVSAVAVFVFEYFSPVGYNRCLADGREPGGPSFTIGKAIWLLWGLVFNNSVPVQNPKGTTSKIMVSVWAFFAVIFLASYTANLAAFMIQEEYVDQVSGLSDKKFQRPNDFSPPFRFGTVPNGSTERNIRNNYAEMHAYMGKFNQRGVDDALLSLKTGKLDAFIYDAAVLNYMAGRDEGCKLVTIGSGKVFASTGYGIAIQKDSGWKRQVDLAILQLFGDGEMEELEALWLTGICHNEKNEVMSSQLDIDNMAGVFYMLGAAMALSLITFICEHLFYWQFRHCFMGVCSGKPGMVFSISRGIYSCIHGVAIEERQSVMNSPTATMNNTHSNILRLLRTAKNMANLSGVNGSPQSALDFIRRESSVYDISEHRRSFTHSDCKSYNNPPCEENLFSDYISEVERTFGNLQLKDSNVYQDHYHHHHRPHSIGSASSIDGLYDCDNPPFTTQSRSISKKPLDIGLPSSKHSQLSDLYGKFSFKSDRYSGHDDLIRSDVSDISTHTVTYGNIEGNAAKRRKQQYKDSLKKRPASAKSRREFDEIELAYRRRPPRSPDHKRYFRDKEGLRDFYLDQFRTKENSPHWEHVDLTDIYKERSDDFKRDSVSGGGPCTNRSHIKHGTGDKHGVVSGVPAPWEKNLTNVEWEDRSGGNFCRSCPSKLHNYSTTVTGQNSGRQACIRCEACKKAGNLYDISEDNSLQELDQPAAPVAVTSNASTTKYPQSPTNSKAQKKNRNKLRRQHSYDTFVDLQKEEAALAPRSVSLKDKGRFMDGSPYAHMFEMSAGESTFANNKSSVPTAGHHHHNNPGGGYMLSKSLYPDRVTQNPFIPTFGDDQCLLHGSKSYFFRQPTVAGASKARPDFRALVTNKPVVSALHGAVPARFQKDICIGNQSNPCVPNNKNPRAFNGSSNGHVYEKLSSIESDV

Compound `Oc1ccc(C(O)CN2C[C@@H]3C[C@@](O)(CC4CCCCC4)C[C@@H]3C2)cc1` (mixture of isomers) [Example 209, rac-(3aR,5R,6aS)-5-(cyclohexylmethyl)-2-[2-hydroxy-2-(4-hydroxyphenyl)ethyl]-octahydrocyclopenta[c] pyrrol-5-ol] had a pIC50 under setting [1] of 6.39.
On the same count and under the same terms, as for `O=C1Cc2cc(C(O)CN3C[C@@H]4C[C@@](O)(Cc5ccccc5)C[C@@H]4C3)ccc2N1` (mixture of isomers) [Example 152, rac-5-(2-((3aR,5r,6aS)-5-benzyl-5-hydroxyhexahydrocyclo-penta[c]pyrrol-2(1H)-yl)-1-hydroxyethyl)indolin-2-one], the figure is 6.84.
In turn, `Cc1ccc(NC(=O)N2C[C@@H]3C[C@@](O)(c4ccccc4C)C[C@@H]3C2)cc1` [Example 9] showed a pIC50 under setting [2] of less than 5.00.
As to `COc1cccc([C@]2(O)C[C@H]3CN(C(=O)Nc4ccc(C)cc4C)C[C@H]3C2)c1` [Example 49], the negative-log IC50 (pIC50) is, setting by setting: under setting [2], less than 5.00; under setting [1], not above 5.00.
On to `Cc1ccc(C[C@]2(O)C[C@H]3CN(CC(=O)c4ccc(O)cc4)C[C@H]3C2)cc1` [Example 179], for which the pIC50 under setting [2] was more than 7.00.
The same measure, in the same setting: the value for `CC(C)(O)c1ccc(C(=O)CN2C[C@@H]3C[C@@](O)(c4ccccc4)C[C@@H]3C2)cc1` [Example 68, 2-(5-hydroxy-5-phenylhexahydrocyclo-penta[c]pyrrol-2(1H)-yl)-2-(4-(2-hydroxypropan-2-yl)phenyl)ethanone] was less than 5.00.
Turning to `Oc1ccc(C(O)CN2C[C@@H]3C[C@@](O)(Cc4ccc(F)cc4)C[C@@H]3C2)cc1` (mixture of isomers) [Example 135, rac-(3aR,5r,6aS)-5-(4-fluorobenzyl)-2-(2-hydroxy-2-(4-hy-droxyphenyl)ethyl)octa-hydrocyclopenta[c]pyrrol-5-ol], the pIC50 under setting [1] is 7.57.
The same measure, in the same setting: as for `COc1ccc(C[C@]2(O)C[C@H]3CN(CC(O)c4ccc(O)cn4)C[C@H]3C2)cc1` (mixture of isomers) [Example 199, rac-6-{2-[(3aR,5R,6aS)-5-hydroxy-5-[(4-methoxyphenyl)methyl]-octahydrocyclopenta[c]pyrrol-2-yl]-1-hydroxyethyl}pyridin-3-ol], the figure is 7.44.
Take `COc1cccc(C[C@]2(O)C[C@H]3CN(CC(O)c4ccc(O)c(F)n4)C[C@H]3C2)c1` (mixture of isomers) [Example 201, rac-(3aR,5r,6aS)-2-(2-(6-fluoro-5-hydroxypyridin-2-yl)-2-hydroxyethyl)-5-(3-methoxy-benzyl)octahydro-cyclopenta[c]pyrrol-5-ol]: the pIC50 under setting [1] is 6.42.
As for `Oc1ccc(C(O)CN2C[C@@H]3C[C@@](O)(CC4CCCCC4)C[C@@H]3C2)nc1` (mixture of isomers) [Example 214, rac-6-{2-[(3aR,5R,6aS)-5-(cyclohexylmethyl)-5-hydroxy-octahydrocyclopenta[c]pyrrol-2-yl]-1-hydroxyethyl}pyridin-3-ol], the pIC50 under setting [1] was 5.58.
For the compound `Cc1ccc(C[C@]2(O)C[C@H]3CN(CC(O)c4ccc(O)cc4)C[C@H]3C2)cc1` (mixture of isomers) [Example 182, rac-(3aR,5R,6aS)-2-[2-hydroxy-2-(4-hydroxyphenyl)ethyl]-5-[(4-methylphenyl)methyl]-octahydrocyclopenta[c] pyrrol-5-ol], the pIC50 under setting [1] is 7.38.
With `Oc1ccc(C(O)CN2C[C@@H]3C[C@@](O)(CC4CC4)C[C@@H]3C2)cc1` (mixture of isomers) [Example 211, rac-(3aR,5r,6aS)-5-(cyclopropylmethyl)-2-(2-hydroxy-2-(4-hydroxyphenyl)ethyl) octahydrocyclopenta [c]pyrrol-5-ol], the pIC50 was less than 5.00 under setting [2] and not above 5.00 under setting [1].
Under setting [2], `O=C(Nc1ccc(F)cc1)N1C[C@@H]2C[C@@](O)(c3ccc(F)cc3)C[C@@H]2C1` [Example 35, N,5-bis(4-fluorophenyl)-5-hydroxy-octahydrocyclopenta[c] pyrrole-2-carboxamide] showed a pIC50 of less than 5.00.
Turning to `COc1cccc([C@]2(O)C[C@H]3CN(CC(O)c4cccc(C(F)(F)F)c4)C[C@H]3C2)c1` (mixture of isomers) [Example 73, rac-2-{2-hydroxy-2-[3-(trifluoromethyl)phenyl]ethyl}-5-(3-methoxyphenyl)-octahydrocyclopenta[c] pyrrol-5-ol], the pIC50 by setting is: under setting [2], less than 5.00; under setting [1], not above 5.00.
The matching figures for `OC(CN1C[C@@H]2C[C@@](O)(Cc3ccccc3)C[C@@H]2C1)c1ccc2[nH]nnc2c1` (mixture of isomers) [Example 186, rac-(3aR,5R,6aS)-2-[2-(1H-1,2,3-benzotriazol-5-yl)-2-hydroxyethyl]-5-benzyl-octahydrocyclopenta[c] pyrrol-5-ol]: 6.00 to 7.00 and 6.13.
As to `O=C(Nc1cccc(C(F)(F)F)c1)N1C[C@@H]2C[C@@](O)(c3ccc(F)cc3)C[C@@H]2C1` [Example 38], the pIC50 by setting is: under setting [2], less than 5.00; under setting [1], not above 5.00.
As for `O=c1[nH]c2ccc(C(O)CN3C[C@@H]4C[C@@](O)(Cc5ccccc5)C[C@@H]4C3)cc2o1` (mixture of isomers) [Example 154, rac-6-(2-((3aR,5r,6aS)-5-benzyl-5-hydroxyhexahydrocyclo-penta[c]pyrrol-2(1H)-yl)-1-hydroxyethyl)benzo[d] oxazol-2(3H)-one], the pIC50 under setting [1] is 7.28.
In the case of `COc1ccc(C[C@]2(O)C[C@H]3CN(CC(O)c4ccc(O)cc4)C[C@H]3C2)cc1` (mixture of isomers) [Example 189, rac-(3aR,5r,6aS)-2-(2-hydroxy-2-(4-hydroxyphenyl)ethyl)-5-(4-methoxy-benzyl)octahydro-cyclopenta[c]pyrrol-5-ol], the pIC50 under setting [1] was 7.32.
Under setting [2], `Cc1ccccc1[C@]1(O)C[C@H]2CN(C(=O)Nc3cccc(Cl)c3)C[C@H]2C1` [Example 11] showed a pIC50 of less than 5.00.
As for `OC(CN1C[C@@H]2C[C@@](O)(Cc3ccccc3)C[C@@H]2C1)c1cnc(OCc2ccccc2)cn1` (mixture of isomers) [Example 163, rac-(3aR,5r,6aS)-5-benzyl-2-(2-(5-(benzyloxy)pyrazin-2-yl)-2-hydroxyethyl)octahydro-cyclopenta[c]pyrrol-5-ol], the pIC50 was less than 5.00 under setting [2] and not above 5.00 under setting [1].
`Oc1ccc(C(O)CN2C[C@@H]3C[C@@](O)(Cc4cccs4)C[C@@H]3C2)cc1` (mixture of isomers) [Example 204, rac-(3aR,5r,6aS)-2-(2-hydroxy-2-(4-hydroxyphenyl)ethyl)-5-(thiophen-2-ylmethyl)octahydrocyclo-penta[c]pyrrol-5-ol] gave a pIC50 under setting [1] of 7.90.
In the case of `O=C(Nc1cccnc1)N1C[C@@H]2C[C@@](O)(c3ccc(F)cc3)C[C@@H]2C1` [Example 41], the pIC50 was less than 5.00 under setting [2] and not above 5.00 under setting [1].
The matching figures for `Oc1ccc(C(O)CN2C[C@@H]3C[C@@](O)(Cc4ccc(F)cc4F)C[C@@H]3C2)nc1` (mixture of isomers) [Example 233, rac-(3aR,5r,6aS)-5-(2,4-difluorobenzyl)-2-(2-hydroxy-2-(5-hydroxypyridin-2-yl)ethyl)octahydrocyclo-penta[c]pyrrol-5-ol]: more than 7.00 and 7.52.
For `COc1ccc(C(O)CN2C[C@@H]3C[C@@](O)(c4ccccc4)C[C@@H]3C2)cc1` (mixture of isomers) [Example 66, rac-2-[2-hydroxy-2-(4-methoxyphenyl)ethyl]-5-phenyl-octahydrocyclopenta[c] pyrrol-5-ol], the pIC50 was less than 5.00 under setting [2] and not above 5.00 under setting [1].
`Oc1ccc(C(O)CN2C[C@H]3C[C@H](Cc4ccccc4)C[C@H]3C2)cc1` (mixture of isomers) [Example 306, rac-4-{2-[(3aR,5R,6aS)-5-benzyl-octahydrocyclopenta[c]pyrrol-2-yl]-1-hydroxyethyl}phenol]: the pIC50 was more than 7.00 under setting [2] and 7.93 under setting [1].
Regarding `CS(=O)(=O)Nc1ccc(C(O)CN2C[C@@H]3C[C@@](O)(Cc4ccccc4)C[C@@H]3C2)nc1` (mixture of isomers) [Example 236, rac-N-(6-(2-((3aR,5r,6aS)-5-benzyl-5-hydroxyhexahydrocyclo-penta[c]pyrrol-2(1H)-yl)-1-hydroxyethyl)pyridin-3-yl)methanesulfonamide], the negative logarithm of the IC50 (pIC50) under setting [1] was 6.94.
On the same count and under the same terms, as for `Cc1cc(F)ccc1C[C@]1(O)C[C@H]2CN(CC(O)c3ccc(O)cc3)C[C@H]2C1` (mixture of isomers) [Example 254, rac-(3aR,5r,6aS)-5-(4-fluoro-2-methylbenzyl)-2-(2-hydroxy-2-(4-hydroxyphenyl)ethyl) octahydrocyclopenta[c] pyrrol-5-ol], the figure is 7.37; as for `Cc1cc(C)cc(C[C@]2(O)C[C@H]3CN(CC(O)c4ccc(O)cn4)C[C@H]3C2)c1` (mixture of isomers) [Example 208, rac-6-{2-[(3aR,5R,6aS)-5-[(3,5-dimethylphenyl)methyl]-5-hydroxy-octahydrocyclopenta[c]pyrrol-2-yl]-1-hydroxyethyl}pyridin-3-ol-3-ol], 6.18; as for `Oc1ccc(C(O)CN2C[C@H]3CN(Cc4ccccc4)C[C@H]3C2)nc1` (mixture of isomers) [Example 329, rac-6-(2-(5-benzylhexahydropyrrolo [3,4-c]pyrrol-2(1H)-yl)-1-hydroxyethyl) pyridin-3-ol], 6.42.
Regarding `Cc1ccc(NC(=O)N2C[C@@H]3C[C@@](O)(c4ccccc4)C[C@@H]3C2)c(C)c1` [Example 47], the pIC50 reads like this: under setting [2], less than 5.00; under setting [1], not above 5.00.
Under setting [1], `CC(C(=O)c1ccc(O)cc1)N1C[C@@H]2C[C@@](O)(Cc3ccccc3)C[C@@H]2C1` (mixture of isomers) [Example 293, rac-2-((3aR,5r,6aS)-5-benzyl-5-hydroxyhexahydrocyclo-penta[c]pyrrol-2(1H)-yl)-1-(4-hydroxyphenyl)propan-1-one] had a pIC50 of 7.00.
With `COc1cccc(C(O)CN2C[C@@H]3C[C@@](O)(c4cccc(OC)c4)C[C@@H]3C2)c1` (mixture of isomers) [Example 77, rac-2-[2-hydroxy-2-(3-methoxyphenyl)ethyl]-5-(3-methoxyphenyl)-octahydrocyclopenta[c] pyrrol-5-ol], the negative logarithm of the IC50 (pIC50) is, setting by setting: under setting [2], less than 5.00; under setting [1], not above 5.00.
For the compound `CC(C(O)c1ccc(O)cc1)N1C[C@@H]2C[C@@](O)(CCc3ccccc3)C[C@@H]2C1` (mixture of isomers) [Example 320, rac-2-(1-hydroxy-1-(4-hydroxyphenyl)propan-2-yl)-5-phenethyl-octahydrocyclo-panta[c]pyrrol-5-ol], the pIC50 under setting [1] was 5.69.
